Data on 15 compounds can be found in patent US8324156B2, “Oral insulin therapies and protocol” (Emisphere Technologies, Inc., priority 2003, dated 2012).

As usually defined, the NOAEL is the highest dose or exposure tested at which no adverse effect was seen.

In data set [1] the test system is blood glucose. To be noted: oral sulfonylureas; cited from earlier work.
The subject of data set [2] is blood glucose. To be noted: marketed insulin preparations; cited from earlier work.
For data set [3] the following is noted: cited from earlier work; for time to peak plasma/serum drug concentration (tmax): fasting or immediately prior to a meal.
For a further data set, the system named is rhesus monkeys. The data set is described as follows: Oral repeated dose toxicity studies in monkeys. In kind it is in vivo, rhesus monkey. Here is the method:
(§1) Toxicology studies were also conducted in rats and monkeys to assess the potential toxicity of 4-CNAB, alone or in combination with insulin. Based on the 14-day oral repeated dose toxicity studies, the NOAEL (No-Adverse Effect Level) was estimated to be 500 mg/kg in Sprague-Dawley rats, and 400 mg/kg in rhesus monkeys. […] Developmental and reproductive toxicology studies have not yet been conducted.

In the next data set the test system is Sprague-Dawley rats. The data set is described as follows: Oral repeated dose toxicity studies in rats. The format is in vivo, rat. The method, then: as §1
Data set [4] can be described thus: Moisture content / hygroscopicity of 4-CNAB. In kind it is physicochemical. To be noted: below 75% RH.
Another data set deals with receptors. The data set is described as follows: Receptor binding screening assays. The method, then:
Insulin/4-CNAB capsules were evaluated by Emisphere Technologies, Inc. in a nonclinical program that included pharmacological screening, pharmacokinetic and metabolic profiles, and toxicity assessments in rats and monkeys. […] Similarly, for a fixed oral dose of 4-CNAB, insulin absorption increased with increasing doses of insulin.

The nature of a further data set: Genotoxicity studies. To be noted: four genotoxicity studies. The method, then: as §1
A short description of data set [5]: Plasma 4-CNAB concentration (Example 1). In kind it is in vivo, human. To be noted: after start of meal intake; 200 mg or 400 mg 4-CNAB capsules. Here is the method:
During each treatment session, blood samples were collected for determination of plasma concentrations of 4-CNAB, insulin and C-peptide, and for blood glucose concentration. Sampling started 1 hour before intake of the test meal and continued until 6 hours thereafter. Blood samples were drawn via a venous cannula and collected related to the start of the test meal at time point 0. The timing of scheduled samples could be adjusted according to clinical needs or needs for pharmacokinetic data. The duration of each session was approximately 8-9 hours. All experiments were performed after an overnight fast of approximately 12 hours.
Blood samples for determination of 4-CNAB plasma concentrations (2 mL in sodium heparin tube) were drawn 10, 20, 30, 40, 60, 90, 120, 240 and 360 minutes after start of meal intake (9 samples per session). Blood samples for determination of insulin and C-peptide plasma concentrations (5 mL in sodium heparin tube) were drawn at −60 and −30 minutes, at time 0 (start of meal intake), and after 10, 20, 30, 40, 50, 60, 75, 90, 105, 120, 150, 180, 210, 240, 300, and 360 minutes (19 samples per session). Plasma concentrations of insulin were determined by a GLP-validated microparticle enzyme immunoassay (MEIA).
Blood samples for the determination of plasma concentrations of insulin, 4-CNAB and C-peptide were collected at defined intervals, as discussed above. […]

[6] abbreviates: dosed three times daily before meals.

Like-named read-outs stand apart in the source and are kept apart here.

As for `Cc1ccc(S(=O)(=O)NC(=O)NN2CCCCCC2)cc1` [Tolazamide], the onset of action in the data set on blood glucose [1] was 4 to 6 h.

Consider `CCCCNC(=O)NS(=O)(=O)c1ccc(C)cc1` [tolbutamide], for which, in the data set with blood glucose [1], the duration of action was 6 to 12 h and the onset of action was 1 h.

Turning to Lantus®, in the data set with blood glucose [2], the duration of activity result is listed as “up to 24 hours”.

In the case of Ultralente insulin, in the data set with blood glucose [2], the onset of action is 2 to 4 h and the “peak time of effect” value was 8 to 20 h.

Consider Glargine insulin: long-acting insulin, for which, in the data set on blood glucose [2], the duration of activity is 24 h and the “peak time of effect” value was “no peak effect”.

Take `Cc1cnc(C(=O)NCCc2ccc(S(=O)(=O)NC(=O)NC3CCCCC3)cc2)cn1` [Glipizide]: in the data set with blood glucose [1], the duration of action was 10 to 24 h and the onset of action entry is “one”.

Take `CCc1ccc(CCOc2ccc(CC3SC(=O)NC3=O)cc2)nc1` (stereo not drawn) [ACTOS® thiazolidinedione, pioglitazone]: the “first measurable in serum” value in data set [3] (oral, fasting state) is ≤ 30 min. Also, the “time to peak plasma/serum drug concentration (tmax)” value in data set [3] (oral) was ≤ 2 h.

Consider `CC(=O)c1ccc(S(=O)(=O)NC(=O)NC2CCCCC2)cc1` [Acetohexamide], for which, in the data set on blood glucose [1], the onset of action was 1 h.

As for `CCC1=C(C)CN(C(=O)NCCc2ccc(S(=O)(=O)NC(=O)N[C@H]3CC[C@H](C)CC3)cc2)C1=O` [Glimepiride], in the data set on blood glucose [1], the duration of action is 18 to 28 h and the onset of action is 2 h.

Regarding `CC(C)[C@H]1CC[C@H](C(=O)N[C@H](Cc2ccccc2)C(=O)O)CC1` [nateglinide], in data set [3] (after oral administration), the “time to stimulation of pancreatic insulin secretion” value is ≤ 20 min. In data set [3] (setting [6]), the “fall of plasma insulin to baseline after dosing” value is ≤ 4 h and the “time of peak plasma insulin levels after dosing” value is ~1 h. Moreover, in data set [3] (oral), the “time to peak plasma/serum drug concentration (tmax)” value is “one”.

As to `CCOc1cc(CC(=O)N[C@@H](CC(C)C)c2ccccc2N2CCCCC2)ccc1C(=O)O` [repaglinide], in data set [3] (food effect), the “decrease in AUC when given with food” value is 12.4% and the “decrease in Cmax when given with food” value is on record as 20%. The “time to peak plasma/serum drug concentration (tmax)” value in [3] (oral) was ≤ 1 h.

As to `COc1ccc(Cl)cc1C(=O)NCCc1ccc(S(=O)(=O)NC(=O)NC2CCCCC2)cc1` [glyburide], in the data set on blood glucose [1], the duration of action was 18 to 24 h and the onset of action is 1.5 h.

In the case of `CN(CCOc1ccc(CC2SC(=O)NC2=O)cc1)c1ccccn1` (stereo not drawn) [AVANDIA® thiazolidinedione, rosiglitazone], the “time to peak concentration with food” value in data set [3] (food effect) is recorded as “about 1.75 hours”. Further, the “time to peak plasma/serum drug concentration (tmax)” value in data set [3] (oral) is ≤ 1 h.

Consider `O=C([O-])CCCNC(=O)c1ccc(Cl)cc1O.[Na+]` [4-CNAB, sodium N-[4-(4-chloro-2 hydroxybenzoyl)amino]butyrate], for which the “NOAEL (No-Adverse Effect Level)” value amounted to 400 mg/kg in the data set on rhesus monkeys (14-day oral repeated dose, rhesus monkeys) and 500 mg/kg in the data set on Sprague-Dawley rats (14-day oral repeated dose, Sprague-Dawley rats, 4-CNAB alone or in combination with insulin). The NOAEL was determined as 600 mg/kg in the data set with rhesus monkeys (90-day oral repeated dose, monkeys) and 250 mg/kg in the data set on Sprague-Dawley rats (90-day oral repeated dose, rats). Also, the residual moisture content in data set [4] was < 0.5%. The inherent pharmacological activity result in the data set with receptors was “no inherent pharmacological activity”. The genotoxicity findings entry in “Genotoxicity studies” is on record as “no positive findings”. For the same compound, the “plasma 4-CNAB concentration after 2 hours relative to the levels seen after 10 minutes” value in data set [5] was “less than 10%”.

Regarding `CCCNC(=O)NS(=O)(=O)c1ccc(Cl)cc1` [Chlorpropamide], in the data set on blood glucose [1], the duration of action was 72 h and the onset of action entry was “one”.
